From patent US8609810B2, “Methylglyoxal-scavenging compounds and their use for the prevention and treatment of pain and/or hyperalgesia” (Ruprecht-Karls-Universitat Heidelberg, priority 2009, dated 2013)
Where no end group is shown, it is not given here.

Columns and labels:
healthy wild-type mice = assay: Exogenous methylglyoxal induces thermal hyperalgesia in vivo (hot plate)
Experimental: Hyperalgesia was studied using the hot-plate assay with an electronically controlled hot-plate analgesia meter (Columbus Instructments, Columbus, Ohio) at 50° C.. Each mouse was removed from the hot plate when a jumping escape response occurred or hind paws were licked, or after a maximal cut-off time of 60 seconds. […] Three measurements were taken per animal at each of the specified time points and averaged. The difference in latency times between control and treated animals, was calculated as a measure of hyperalgesia. Healthy wild-type mice (Male; 10-12 weeks) were treated with various concentrations of methylglyoxal (0.7 μM-700 μM) by intravenous injection as 0.9% NaCl solution. Control groups were injected with 0.9% NaCl solution. After 3 hrs incubation time, hyperalgesia was assessed.

[1] = Plasma methylglyoxal measurement after i.v. injection of MG (HPLC); format: in vivo, mice; details: male, wild-type, mouse, iv, 5 μg MG i.v., within 10 min, read-out: plasma MG levels
Experimental: (B) 5 μg ([…]) MG was administered by i. v. injection as 0.9% NaCl solution to male healthy wild-type mice (10-12 weeks old) and MG-plasma concentrations were determined by HPLC at time point Oh, 10 min, 30 min, 1 h and 3 h. Data represent mean±SD (n=3 per time point).
(§1) The concentration of methylglyoxal in mouse plasma samples was determined by derivatization with 1,2-diamino-4,5-dimethoxybenezene using a previously described method. Blood samples were drawn into EDTA containing tubes from the retrobulbar vessels at time of sacrifice and centrifuged (2000 g; 5 mins). Plasma was removed and acidified with 10% TCA (0.1 ml). Samples were either analyzed immediately or stored at −80° C.

glyoxalase-I = target: T1, glyoxalase-I (Mus musculus, UniProt Q9CPU0); assay: In vivo inhibition of Glyoxalase I in healthy wild-type mice
T1 construct: Healthy wild-type mice (Male); from tissue
T1 sequence (Q9CPU0 2-184 limits assumed): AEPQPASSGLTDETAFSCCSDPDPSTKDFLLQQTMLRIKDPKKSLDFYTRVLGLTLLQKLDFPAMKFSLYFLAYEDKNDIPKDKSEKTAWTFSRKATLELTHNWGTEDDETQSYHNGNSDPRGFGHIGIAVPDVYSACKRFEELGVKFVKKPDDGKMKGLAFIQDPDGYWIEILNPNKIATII
Experimental: (A) Inhibition of Glyoxalase I by the cell permeable inhibitor S-p-Bromobenzylglutathione Cyclopentyl diester in male healthy wild-type mice (10-12 weeks old). Hyperalgesia was assessed by the hot plate assay at day 0 before application of the inhibitor. Thereafter, consecutive assessments of thermal hyperalgesia were made at selected time points (black circles), at which some mice also were sacrificed and plasma isolated for the determination of MG concentration (open circles). Data represent mean±SD (n=3 per time point). Different approaches were utilized to verify the hypothesized threshold-dependent effect of the MG/glyoxalase-system on hyperalgesia.
(§2) Hyperalgesia was studied using the hot-plate assay with an electronically controlled hot-plate analgesia meter (Columbus Instructments, Columbus, Ohio) at 50° C.. Each mouse was removed from the hot plate when a jumping escape response occurred or hind paws were licked, or after a maximal cut-off time of 60 seconds. […] Three measurements were taken per animal at each of the specified time points and averaged. The difference in latency times between control and treated animals, was calculated as a measure of hyperalgesia.
as §1
Healthy wild-type mice (Male; 10-12 weeks) were pretreated for 48 hrs with 50 μg/g (i.p) of the cell permeable Glyoxalase I inhibitor, S-p-Bromobenzylglutathioine Cyclopentyl diester. After 48 hrs, hyperalgesia was assessed. Mice were then treated every 2nd day for a period of 15 days, during which consecutive assessments of hyperalgesia were made. At selected time points, mice sacrificed, and plasma isolated for determination of methylglyoxal concentration.

[2] = system: methylglyoxal-induced hyperalgesia in healthy wild-type mice; assay: Methylglyoxal-induced hyperalgesia, hot-plate assay (in vivo scavenging of methylglyoxal); details: 1 mg i.p., MG 70 μM, FIG. 6A
Experimental: Healthy wildtype mice (10-12 weeks), were injected with 1 mg GERP (≡1.096×1015 Arg residues) or control peptide GEAP; i.p. 30 mins prior to injection with methylglyoxal (MG; 70 μM). Hyperalgesia was assessed 3 hrs after i.p injection by hot-plate assay. Data represent mean±SEM (N=10). GERP reduced methylglyoxal-induced hyperalgesia by ca. 60% in healthy wildtype mice, whereas the control peptide had no effect, showing that scavanging of methylglyoxal reduced hyperalgesia.
as §2
A synthetic peptide, GERP001, containing ten arginine residues per molecule act as an effective in vivo scavenger of methylglyoxal was designed in house and synthesized (GenWay Biotech, Inc. San Diego, Calif., USA). […] Hyperalgesia was assessed 3 hrs after administration of methylglyoxal.

[3] = system: diabetes induced hyperalgesia in diabetic wild-type mice; assay: Diabetes induced hyperalgesia, hot-plate assay in STZ-induced diabetic wild-type mice; format: in vivo
Experimental: Diabetic wildtype mice (Male; 18 wks) were injected with either 1 mg GERP or GEAP i.p. Following 1 day of treatment with either peptide, treatment was discontinued, after which consecutive measurements of hyperalgesia were performed to determine biological half-life of the peptide. This was determined to be ca. 80 hrs. Data represent the mean±SEM (N=10), ***P<0.0001, **P<0.001, *P<0.05, NSP>0.05 vs. GERP or GEAP control at respective time point; 000P<0.0001, NSP>0.05 vs. day 0.
Diabetes was induced by i.p. administration of STZ at 60 mg/kg, freshly dissolved in sterile sodium citrate (0.05M, pH4.5) on 6 subsequent days. Control animals received sodium citrate only. Diabetes was verified 16-25 days later by measurement of blood glucose levels in samples from the tail vein using ACCU-CHEK glucose sticks and a conventional Accutrend glucometer. In the first 2 weeks following the onset of diabetes, blood glucose was measured daily. If glucose levels occasionally recovered, an additional STZ injection was given on day 25-27. More than 90% of mice became diabetic within the first 4 weeks and were used throughout the experiment. As soon as blood glucose increased above 300 mg/dl, individual supplementation with 1-2 U Insulin Semilenta (40 U/ml) was started. Once glucose levels had stabilized, blood glucose was determined at least once a week for the first 2 months, and thereafter every second week. Tight blood glucose control kept individual blood glucose level stable throughout the experiments. At the end of the experiments, mice were sacrificed with CO2, and both sciatic nerves dissected, weighed and snap-frozen in liquid nitrogen.
as §2
To determine the effect of GERP on diabetes induced hyperalgesia, STZ-induced diabetic wild-type mice (Male; 18 wks) were injected intraperitioneal with either 1 mg of GERP001 or GEAP. After 24 hrs, hyperalgesia was assessed by hotplate assay.

CC(=O)C=O [MG, 2-oxo-propanal]
persistence of MG-induced changes resulting in hyperalgesia (healthy wild-type mice; after MG application, data not shown): more than 3 hours | plasma MG level needed for dose-dependent hyperalgesia (threshold concentration) (healthy wild-type mice; plasma MG at 15 min after MG application): exceeded 600 nM | induction of heat hyperalgesia (healthy wild-type mice; systemic (i.v.) MG, 3 h after MG injection, hot plate): significant and dose-dependent induction of heat hyperalgesia | concentration at 10 min [1]: > 800 nM

NC(CCC(=O)NC(CSCc1ccc(Br)cc1)C(=O)NCC(=O)OC1CCCC1)C(=O)OC1CCCC1 (stereo not drawn) [S-p-Bromobenzylglutathione Cyclopentyl diester]
glyoxalase-I enzymatic activity (glyoxalase-I; 3 days after continuous inhibitor administration, injected every second day): fully inhibited | MG plasma concentration (glyoxalase-I; 6 days after initiation of treatment): exceeded 600 nM | thermal hyperalgesia (glyoxalase-I; 6 days after initiation of treatment, hot plate): significant thermal hyperalgesia

GEAP: a control peptide in which the arginine residues were substituted for alanine (HHHHHHGGGGGEPGEPGEPGEPGEPGEPGEPGEPGEPGEP; GEAP motif containing peptide)
effect on thermal hyperalgesia in MG-treated healthy wild-type mice [2]: no effect | effect on thermal hyperalgesia in diabetic mice ([3]; mice after 8 weeks of diabetes with manifest hyperalgesia, 1 mg i.p., FIG. 6C): no effect

HHHHHHGGGGGERPGERPGERPGERPGERPGERPGERPGERPGERPGERP [GERP001]
physiological / biological effective half-life ([3]; diabetic mice, 1 mg i.p., after treatment discontinued, regression analysis, linear decay model): ca. 80 hrs | biological effective half-life (preliminary experiments) ([3]; preliminary experiments, data fitted to an exponential decay (R2=0.9734)): ca. 13 hrs | half-life of the effect of a single injection ([3]; single injection (1 mg)): 80 h
